2 compounds from patent US5356935A, “Reduced phenanthrenes” (Eli Lilly and Company, priority 1993, dated 1994) can be followed below.

The target in one assay is T1, Type II 5α-reductase (Homo sapiens, UniProt P31213).
T1 construct: from tissue; host or cells: human prostate tissue from surgery, 100,000×g pellet of homogenate
T1 sequence (P31213 1-254): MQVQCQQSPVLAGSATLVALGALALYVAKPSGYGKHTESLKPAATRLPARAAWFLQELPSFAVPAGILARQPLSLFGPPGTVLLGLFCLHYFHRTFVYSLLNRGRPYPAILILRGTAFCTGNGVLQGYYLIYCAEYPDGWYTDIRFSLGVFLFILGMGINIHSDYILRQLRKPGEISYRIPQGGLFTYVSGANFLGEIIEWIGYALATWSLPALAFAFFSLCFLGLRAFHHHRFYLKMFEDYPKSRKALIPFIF
Briefly: Human Type II steroid 5α-reductase assay (human prostate enzyme, [3H]-testosterone conversion). It counts as biochemical. To be noted: compared to control reaction mixtures, read-out: percent inhibition of Type II 5AR; for inhibition at 1 µM: compound concentration 1 μM; for inhibition at 3 µM: compound concentration 3 μM; for inhibition at 10 µM: compound concentration 10 μM; for inhibition at 0.3 µM: compound concentration .3 μM. On the procedure:
The same procedure as above was used for preparations using tissue from prostate surgery with the following changes: The buffer used was 20 mM sodium phosphate, pH 6.5; and the pellet was resuspended in the sodium phosphate buffer containing 20% glycerol.
(§1) This enzyme assay is based on the conversion of [^3 H]-testosterone to [^3 H]-5α-dihydrotestosterone (DHT) and other 5α-reduced metabolites. While about 90% of the 5α-reduced metabolites formed in these assays was DHT, androstanedione was formed at about 10%. Essentially no androsterone was detected. In a total volume of 1.0 ml, the assay contained 2.6 μCi [^3 H]-testosterone (50 nM), 500 μM of reduced nicotine adeninc dinucleotide phosphate, 100 mM Tris-HCl, pH 7.5, (in Type II assays, 40 mM sodium acetate at pH 5.5 is used instead of Tris-HCl) and test compounds as indicated. Test compounds were added in 20 μl of dimethylsulfoxide (20 μl of dimethylsulfoxide was added to blanks and controls). The reaction was initiated by the addition of 0.5 mg of Type I or Type II 5α-reductase. The reaction mixture was incubated for 30 min at 25° and terminated by the addition of 1 ml ice-cold stopping solution. The stopping solution contained 40 μM each of non-radioactivetestosterone, DHT, androstenedione, androstanedione, androsterone, androstan-3β,17β-diol, and androstan-3α,17β-diol.
(§2) The samples were prepared for high performance liquid chromatography by solid phase extraction. Disposable solid matrix extraction columns (C-18 reversed;phase, 6 ml, 500 mg; Bond Elut™ from Analytichem International; Harbor City, Calif.) were conditioned by washing with 5 ml of methanol followed by 5 ml of deionized water. The reaction mixtures were then applied to the columns. The columns were subsequently washed with 5 ml of acetone:water (1:4), followed by 0.3 ml of methanol. The samples were then eluted with 3 ml of methanol and collected in 20 ml scintillation vials. Three ml of water was then added to each scintillation vial. The solutions were then transferred to tubes and centrifuged for 30 min at 1000×g to remove any particulate material before chromatography.
(§3) The [^3 H]-testosterone substrate and its metabolites were separated by chromatography using a C-18 reversed phase column (Beckman Ultrasphere 5 μm spherical 80A pore, part no. 235329, 4.6 mm i.d.×[…]) with an isocratic mobile phase (46 water: 46 methanol: 8 tetrahydrofuran by volume). The column temperature was maintained at 35° and the flow rate was 1.5 ml/min. A 400 μl aliquot was injected onto the column and radioactivity was determined using a Beckman 171 in-line flow radioisotope detector in conjunction with Rainin Dynamax™ software and a Macintosh computer. The flow rate of the Atomflow™ scintillation fluid was 4.5 ml / min.

A further assay deals with T2, Type I 5α-reductase (Homo sapiens, UniProt P18405).
T2 construct: Scalp punch biopsies from graft recipient sites were obtained from human hair transplant procedures; from tissue; host or cells: human scalp punch biopsies (pooled, 60-75 punches from one surgical procedure), 100,000×g pellet of homogenate
T2 sequence (P18405 1-259): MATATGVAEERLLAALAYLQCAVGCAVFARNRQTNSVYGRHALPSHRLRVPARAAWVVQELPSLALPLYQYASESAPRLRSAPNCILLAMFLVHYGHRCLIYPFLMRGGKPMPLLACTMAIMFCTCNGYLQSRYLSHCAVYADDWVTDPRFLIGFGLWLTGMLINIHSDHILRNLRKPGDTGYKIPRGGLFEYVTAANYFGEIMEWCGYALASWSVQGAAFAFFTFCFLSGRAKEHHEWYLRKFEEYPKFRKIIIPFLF
Briefly: Human Type I steroid 5α-reductase assay (human scalp enzyme, [3H]-testosterone conversion). It counts as biochemical. To be noted: compared to control reaction mixtures, read-out: percent inhibition of Type I 5AR; for inhibition at 0.01 µM: compound concentration .01 μM; for inhibition at 0.03 µM: compound concentration .03 μM; for inhibition at 0.1 µM: compound concentration .1 μM. On the procedure:
Scalp punch biopsies from graft recipient sites were obtained from human hair transplant procedures immediately after surgery and were frozen on dry ice and stored at -80° C. Approximately 60-75 punches from one surgical procedure were used to generate an enzyme preparation. The subcutaneous tissue was cut away and discarded. The skin was frozen with liquid nitrogen and pulverized to powder. The powder was homogenized in 30 ml of ice-cold buffer (20 mM Tris-HCl, pH 7.5) using a Brinkmann Polytron (Westbury, N.Y.) with a PTA 10-S robe and a setting of 7. The homogenization procedure consisted of four 15 second pulses. Connective tissue was cleared from the probe with forceps between pulses. The homogenate was then filtered through cheese cloth and the filtrate centrifuged at 100,000×g for one hour in a Beckman L8-60M ultracentrifuge. The pellet was resuspended by homogenization with a Dounce homogenizer using the same buffer solution. An aliquot was taken for protein determination by the Lowry method, Lowry, et al., Protein Measurement with the Folin Phenol Reagent, J. Biol. Chem., 193,265-75 (1951). Aliquots of the enzyme preparation were stored at -80° until use.
as §1, §2, §3

What is called inhibition is the percentage by which the read-out fell short of the control. Consider `C[C@]12CCC(=O)C(N)=C1CCc1cc(Cl)ccc12` [Example 1, (R)-1-amino-7-chloro-4,4a,9,10-tetrahydro-4a-methyl-2(3H)-phenanthreneone], for which, at Type II 5α-reductase, the inhibition at 1 µM came to 55%, the inhibition at 3 µM was 49%, the inhibition at 10 µM stood at 63% and the inhibition at 0.3 µM was 47%. On Type I 5α-reductase, the inhibition at 0.01 µM stood at 0%, the inhibition at 0.03 µM turned out to be 35% and the inhibition at 0.1 µM amounted to 42%.
Turning to `C[C@]12CCC(=O)C(N)=C1C=Cc1cc(Cl)ccc12` [Example 2, (R)-1-amino-7-chloro-4,4a-dihydro-4a-methyl-2(3H)-phenanthreneone], at Type II 5α-reductase, the inhibition at 1 µM is 16%, the inhibition at 3 µM amounted to 33%, the inhibition at 10 µM was 36% and the inhibition at 0.3 µM was found to be 7%. In addition, at Type I 5α-reductase, the inhibition at 0.01 µM was 0%, the inhibition at 0.03 µM stood at 3% and the inhibition at 0.1 µM was 26%.
